Results taken from patent publication US20250041302A1, “PROLYL HYDROXYLASE DOMAIN INHIBITOR FOR TREATING HEMORRHAGIC OR BURN SHOCK” (THE GOVERNMENT OF THE UNITED STATES, AS REPRESENTED BY THE …, priority 2022, published 2025).
Entries after “also recorded” stand apart in the source; their conditions may differ.

Key:
[1] = system: polytrauma/hemorrhage rodent model; assay: Intravenous PHDi at 20 min after polytrauma/hemorrhage (FIG. 6); assay type: in vivo, rat
Description: FIG. 6. The effect of intravenous administration of PHDi after polytrauma/hemorrhage. PHDi (MK-8617, 1 mg/kg, n=8) or vehicle (n=7) was administered intravenously at 20 min after trauma. (FIG. 6A) Mean arterial pressure (MAP); (FIG. 6B) Lactate (hyperlactatemia); (FIG. 6C) Prothrombin time (PT, acute traumatic coagulopathy); and (FIG. 6D) Fibrinogen level.
PHDi (MK-8617, 1 mg/ml in 500 μL of 5% DMSO, 10% PEG 400, and 85% normal saline, average dose 1.26±0.05 mg/kg, n=8), or vehicle (n=7) was administered intravenously at 20 min after trauma. The surviving animals were euthanized 4 hours after trauma.

[2] = system: rats with lethal hemorrhagic shock; assay: Intravenous PHDi in lethal hemorrhagic shock, fixed-volume hemorrhage 65% EBV, FWB at 60 min (FIG. 7-10); assay type: in vivo, Sprague-Dawley rats
Description: For the experiments in this disclosure, fixed-volume hemorrhage (65% estimated blood volume (EBV)) was performed in isoflurane anesthetized Sprague-Dawley rats. In this model, the initial 40% of total volume of hemorrhage was performed by continuous blood draw using syringe pump within first 2 min, followed by manually repeatedly drawing 1.5 ml of whole blood every 2 min at 10 min, and 1 ml of whole blood every 3 min thereafter until achieving the targeted volume of hemorrhage, and thus 40% bleeding occurs within the first 2 minutes (fast hemorrhage), another 40% between 2-10 minutes, and the rest 20% between 10-22 minutes (slow hemorrhage).
Then, the animals were treated with 500 u L PHDi (MK-8617 at 1 mg/ml, in a dissolvent composed of 5% DMSO, 10% PEG 400, and 85% normal saline, average dose at 1.24±0.07 mg/kg) or vehicle (n=13 each) intravenously at 20 min after hemorrhage. At 60 min after hemorrhage, surviving animals were resuscitated with fresh whole blood (FWB, 20% EBV) using shed blood collected at 2 min after hemorrhage. The 60 min- or 4 hour survivability was analyzed
For the measurement of metabolites (lactate and HCO3) and ATP, blood samples were harvested at time point 0 (baseline), 20 minutes (prior to PHDi), 60 minutes (prior to fresh whole blood (FWB)), and 240 minutes after polytrauma/hemorrhage.

[3] = system: rats with polytrauma and hemorrhagic shock; assay: Oral PHDi prior to polytrauma/hemorrhage, pilot study (FIG. 3); assay type: in vivo, Sprague-Dawley rats
Description: FIG. 3. The effect of PHDi prior to polytrauma/hemorrhage on lactate level. PHDi (MK-8617, 1 mg/kg) or vehicle was orally applied in rats prior to trauma (n=3-4/group). The lactate in whole blood samples were collected at baseline (BSL), shed hemorrhage blood (HEM), 2- and 4 hours after trauma and measured by iSTAT. […] Values represent as means±SEM.
PHDi (MK-8617, 500 microgram per rat) was orally applied prior to trauma, and the lactate (measured by iSTAT) was measured at baseline, 2 and 4 hours after trauma.
Model-1, acute sub-lethal hemorrhagic shock with polytrauma (40% hemorrhage, fast speed hemorrhage at >1 ml/min, target MAP at 35-40 mmHg for 30 min): This model has intensive tissue damage and transient compensated hemorrhagic shock, and the animals survived for 4 hours after trauma without resuscitation or any intervention. The death occurs after 4 hours after trauma.
Briefly, Sprague-Dawley rats (350-450 gram) were anesthetized with isoflurane/100% oxygen through a nosecone and allowed to breathe spontaneously. Cannulas were placed in the left femoral artery and vein for measurement of arterial blood pressure and to obtain vascular access (blood draw and resuscitation and drug administration) respectively. Polytrauma was induced by laparotomy, crush injury to the small intestines, the left and medial liver lobes, and the right leg skeletal muscle and by fracture of the right femur. In detail, a midline incision was made through the abdominal skin and underlying muscle layers. A 10-cm section of small intestines was isolated just anterior to the cecum and run gently through a clamp covered with silastic tubing with a 2-mm distance between the clamps to cause a gentle crush injury. The right and medial lobes of the liver will receive three crushes to each lobe using the same clamp. The intestines and liver were replaced, and the abdominal incision was closed with sutures in two layers. To fracture the […], a modification of a 3-point impact device was used by dropping six stainless-steel balls (65 g each) stacked together, from 36 inches through a guide tube (1 inch internal diameter) to impact on a rounded aluminum blade resting on the mid-right femur with the right leg resting on two aluminum stands, one under the hip and one under the knee. A large hemostat (5 in tongs) was used to clamp the muscle of the right leg 10 times. The crush injury was intended to cause microvascular damage, as opposed to cutting, chopping, or mincing of the tissue, which would have led to uncontrolled hemorrhage. The polytrauma was performed about 10 min followed immediately by hemorrhage. […]
The lactate in whole blood samples were collected at baseline (BSL), shed hemorrhage blood (HEM), 2- and 4 hours after trauma, and the lactate was measured by iSTAT. […]

## COc1ccc(C(NC(=O)c2cnc(-c3cccnn3)nc2O)c2ccc(OC)cc2)cc1 [MK-8617, N-[Bis(4-methoxyphenyl)methyl]-4-hydroxy-2-(pyridazin-3-yl)pyrimidine-5-carboxamide]
[1]; after treatment, MK-8617 i.v. 1.26±0.05 mg/kg at 20 min after trauma, n=8
  mean arterial pressure (MAP) compared with vehicle: significantly higher
[1]; at 60 min, i.v. at 20 min after trauma
  reduction in the elevation of lactate as compared with vehicle: about 30%
[1]; i.v. at 20 min after trauma
  prothrombin time (PT, acute traumatic coagulopathy): reduced the prolongation of prothrombin time
[2]; 10 min after treatment, i.v. 1.24±0.07 mg/kg at 20 min after hemorrhage, vehicle 31.3±1.1, p=0.02
  MAP: 35.9±1.2 mmHg
[2]; PHDi treated animals, FWB at 60 min
  MAP after whole blood resuscitation (FWB): partial restoration of MAP
[2]; acute administration
  time to death: extends the time to death
[2]; at 60 min
  reduction in the elevation of lactate as compared with vehicle: about 30%
[2]; at 4 hr after transfusion
  lactate after whole blood resuscitation: reduced lactate
[2]; n=13, vehicle 15%, p=0.03
  60 min survivability: 62%
[2]; surviving animals at 60 min and 4 hours followed by whole blood resuscitation
  prothrombin time (PT): significantly elevated
[2]; vehicle 1 of 2, p=0.036
  animals surviving for 4 hours after hemorrhage among those that received whole blood resuscitation: 6 of 8
[3]; 2 and 4 hr after trauma, oral prior to trauma
  average levels of lactate attenuated as compared with vehicle: about 30%
[3]; 4 hours after trauma
  survival: all animals survived after 4 hours
[3]; 4 hours after trauma, MK-8617 1 mg/kg orally prior to trauma, n=4
  lactate in whole blood (iSTAT): 2.365 ± 0.733 mmol/L
[3]; oral MK-8617 1 mg/kg prior to trauma, 1 mg/kg
  rise of lactate: attenuated the rise of lactate; also recorded: mitigating the elevation of lactate; also recorded: attenuates lactate levels
